Data as given in PubChem BioAssay (NCI).
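Following 48 hours of exposure in 96-well plates, responses at five concentrations were used to interpolate endpoints linearly. GI50: concentration for 50% inhibition of growth. The concentration for full growth arrest is given as TGI.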

Tests used:
Experiment in all cases: NCI-60 cell line screen, 48 h
UACC-257 melanoma = test system: UACC-257 melanoma
CCRF-CEM leukemia = test system: CCRF-CEM leukemia
RPMI-8226 leukemia = test system: RPMI-8226 leukemia
OVCAR-4 ovarian = test system: OVCAR-4 ovarian
OVCAR-5 ovarian = test system: OVCAR-5 ovarian
SK-MEL-5 melanoma = test system: SK-MEL-5 melanoma
SW-620 colon = test system: SW-620 colon
SK-MEL-28 melanoma = test system: SK-MEL-28 melanoma
SF-539 CNS = test system: SF-539 CNS
EKVX NSCLC = test system: EKVX NSCLC
SK-OV-3 ovarian = test system: SK-OV-3 ovarian
MDA-N = test system: MDA-N

| Structure (SMILES) | GI50 (UACC-257 melanoma) [µM] | TGI (UACC-257 melanoma) [µM] | GI50 (CCRF-CEM leukemia) [µM] | TGI (CCRF-CEM leukemia) [µM] | GI50 (RPMI-8226 leukemia) [µM] | TGI (RPMI-8226 leukemia) [µM] | GI50 (OVCAR-4 ovarian) [µM] | TGI (OVCAR-4 ovarian) [µM] | GI50 (OVCAR-5 ovarian) [µM] | TGI (OVCAR-5 ovarian) [µM] | GI50 (SK-MEL-5 melanoma) [µM] | TGI (SK-MEL-5 melanoma) [µM] | GI50 (SW-620 colon) [µM] | TGI (SW-620 colon) [µM] | TGI (SK-MEL-28 melanoma) [µM] | TGI (SF-539 CNS) [µM] | TGI (EKVX NSCLC) [µM] | TGI (SK-OV-3 ovarian) [µM] | TGI (MDA-N) [µM] |
| --- | --- | --- | --- | --- | --- | --- | --- | --- | --- | --- | --- | --- | --- | --- | --- | --- | --- | --- | --- |
| COc1ccc(-c2nc(-c3nc4cc(Cl)c(Cl)cc4[nH]3)c3ccccn23)cc1 | 5.77 | > 100 | > 100 | > 100 | 3.74 | > 100 | 2 | 4.9 | > 100 | > 100 | 2.91 | > 100 | 8.37 | > 100 | – | – | – | – | – |
| COc1ccc(/C=C2\C(=O)N(C(=O)c3ccc(NC(C)=O)cc3)N=C2C)cc1OC | – | > 100 | – | > 100 | – | > 100 | – | > 100 | – | > 100 | – | > 100 | – | > 100 | > 100 | > 100 | > 100 | – | – |
| Cc1c2ccccc2c(/C=N/NC(=O)CSCC(=O)N/N=C/c2c3ccccc3c(C)c3ccccc23)c2ccccc12 | – | > 100 | – | > 72.4 | – | 51.9 | – | > 100 | – | > 100 | – | > 100 | – | > 100 | > 100 | > 56.9 | > 100 | > 100 | – |
| Cc1ccccc1NC(=O)C(=O)C(C1OC(=O)c2ccccc21)[N+](=O)[O-] (centres undefined) | – | > 100 | – | > 100 | – | > 100 | – | > 100 | – | > 100 | – | > 100 | – | > 100 | > 100 | > 100 | > 100 | > 100 | – |
| COc1cc2c(c3nc4ccccc4nc13)-c1ccc(SC)c(=O)cc1[C@@H](NC(C)=O)CC2 | – | > 100 | – | > 100 | – | > 100 | – | > 69.2 | – | > 100 | – | > 100 | – | > 100 | > 100 | 0.0603 | 0.795 | > 100 | – |
| CC(C)C(Sc1nc(-c2ccccc2)c(-c2ccccc2)[nH]1)C(=O)N/N=C/c1ccc(Cl)cc1 (centres undefined) | – | 53.7 | – | 85.4 | – | 65.4 | – | 98.4 | – | 52.4 | – | 30.5 | – | 68.2 | 45.2 | 36.4 | 67.6 | 67 | – |
| O=[N+]([O-])C(/C(Cl)=C(/Cl)N1CCOCC1)=C1\Nc2ccccc2O1 | – | > 100 | – | > 100 | – | > 100 | – | > 100 | – | > 100 | – | – | – | > 100 | > 100 | > 100 | > 100 | > 100 | – |
| COC(=O)C12CCCN1CCC2 | – | > 100 | – | > 100 | – | – | – | > 100 | – | > 100 | – | > 100 | – | > 100 | > 100 | – | > 100 | > 100 | > 100 |
| COC1CCC(O)C(CO)O1 (centres undefined) | – | > 100 | – | 77.3 | – | – | – | > 100 | – | > 100 | – | > 100 | – | > 100 | > 100 | > 100 | > 100 | > 100 | – |
| CCOC(=O)c1ccc(N2C(=O)/C(=C/c3ccc(N(CCC#N)CCC#N)cc3)N=C2c2cc([N+](=O)[O-])ccc2Cl)cc1 | – | – | – | > 100 | – | > 100 | – | > 100 | – | > 100 | – | > 100 | – | > 100 | > 100 | > 100 | > 100 | > 100 | – |
| O=c1[nH]c2c(C(F)(F)F)c(Cl)c(-c3ccccc3)nc2o1 | – | 59.9 | – | 34 | – | – | – | 69.5 | – | 58.2 | – | > 100 | – | > 100 | > 100 | – | 41.6 | 64.7 | 44.8 |
| COc1ccc(OC)c([N+](=O)[O-])c1-c1nc2sc(Cl)cn2c1/C=N/N=C(N)N | – | 37.5 | – | > 100 | – | > 100 | – | 30.1 | – | 71.7 | – | 32.3 | – | 55 | 33.4 | 53.5 | 57 | – | – |
| Cc1c2ccccc2c(=O)n2c(-c3ccccn3)cccc12 | – | > 100 | – | > 100 | – | > 100 | – | > 100 | – | – | – | > 100 | – | > 100 | > 100 | > 100 | > 100 | > 100 | – |
| C[C@]12CC[C@H]3[C@@H](CC=C4C[C@@H](N5CCCC5)CC[C@@]43C)[C@@H]1C/C(=C\c1ccc([N+](=O)[O-])cc1)[C@@H]2O | – | 31.5 | – | 14.1 | – | 38.5 | – | 25.4 | – | – | – | 28.3 | – | 36.6 | 28.2 | 32.4 | – | 30.1 | – |
| CCOc1cc2c(cc1OC)c[n+](C)c1c3cc(OC)c(OC)cc3ccc21 | – | > 100 | – | > 65.8 | – | > 100 | – | > 100 | – | > 85.2 | – | > 100 | – | > 93.5 | > 100 | > 100 | > 100 | > 100 | – |
| Cc1cnoc1/N=C1\C=C(Nc2oncc2C)C(=O)c2ccccc21 | – | > 100 | – | > 100 | – | > 100 | – | > 100 | – | > 100 | – | > 100 | – | > 100 | > 100 | > 100 | > 100 | > 100 | – |
